Results reported in article PMC11025096, “Universal Glycosyltransferase Continuous Assay for Uniform Kinetics and Inhibition Database Development and Mechanistic Studies Illustrated on ST3GAL1, C1GALT1, and FUT1” (ACS Omega, 2024).

Assays:
FUT1 [1] = molecular target: T1, FUT1 (Homo sapiens, UniProt P19526); assay: donor at fixed saturating concentration in UGC continuous coupled assay (NDK/PK/LDH); assay type: biochemical
T1 construct: pGEn2 construct expressed in HEK293F; tag removed with TEV protease
T1 sequence (P19526 1-365): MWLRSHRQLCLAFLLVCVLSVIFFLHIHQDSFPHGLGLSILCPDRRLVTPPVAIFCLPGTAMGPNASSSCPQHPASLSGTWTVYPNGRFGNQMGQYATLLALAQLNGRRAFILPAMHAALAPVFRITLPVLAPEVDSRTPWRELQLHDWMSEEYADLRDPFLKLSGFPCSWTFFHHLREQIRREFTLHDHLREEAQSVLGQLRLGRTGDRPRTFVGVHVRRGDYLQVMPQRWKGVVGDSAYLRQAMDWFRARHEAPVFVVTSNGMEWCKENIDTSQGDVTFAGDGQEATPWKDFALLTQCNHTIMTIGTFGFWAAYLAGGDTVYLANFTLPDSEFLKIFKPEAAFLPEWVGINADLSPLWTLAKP

CMK (cytidylate kinase) = molecular target: T2, CMK (cytidylate kinase) (Escherichia coli, UniProt P0A6I0); assay: coupled PK/LDH NADH fluorescence progress curves over CMP serial dilution; assay type: biochemical
T2 sequence (P0A6I0 1-227): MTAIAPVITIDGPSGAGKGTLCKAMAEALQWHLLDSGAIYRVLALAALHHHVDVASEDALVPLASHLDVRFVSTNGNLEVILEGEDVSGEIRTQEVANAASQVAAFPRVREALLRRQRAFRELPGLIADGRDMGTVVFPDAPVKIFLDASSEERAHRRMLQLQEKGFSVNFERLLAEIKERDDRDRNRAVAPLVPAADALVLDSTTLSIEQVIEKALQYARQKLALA

ST3GAL1 [2] = molecular target: T3, ST3GAL1 (Homo sapiens, UniProt Q11201); assay: biochemical; set-up: UGC coupled continuous assay, NADH fluorescence depletion, 30 min enzyme-inhibitor preincubation, 37 °C; conditions: acceptor and donor at Km; 20 min; read-out: Log IC50 (M) 20 Minutes (converted)
T3 construct: pGEn2 construct expressed in HEK293F; tag removed with TEV protease
T3 sequence (Q11201 1-340): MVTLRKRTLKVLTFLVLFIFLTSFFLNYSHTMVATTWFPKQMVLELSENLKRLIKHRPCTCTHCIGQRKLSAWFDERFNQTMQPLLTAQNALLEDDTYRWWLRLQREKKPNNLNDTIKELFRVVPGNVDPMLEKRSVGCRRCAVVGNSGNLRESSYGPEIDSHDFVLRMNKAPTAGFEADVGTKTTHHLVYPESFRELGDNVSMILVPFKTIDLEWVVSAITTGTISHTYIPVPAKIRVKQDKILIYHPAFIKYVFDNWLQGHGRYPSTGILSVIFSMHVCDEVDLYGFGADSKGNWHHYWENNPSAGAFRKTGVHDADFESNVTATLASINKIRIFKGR
Protocol: (§1) Soyasaponin 1 stock solution was prepared at 1.25 mM in 2% (v/v) Triton X-100 and 10% (v/v) DMSO. Inhibition assays were performed following a method similar to that used in the kinetics study. The master mixtures included all of the components except for the inhibitor and the enzyme. A 2-fold serial dilution from the inhibitor’s stock solution was prepared in a blank solution containing 2 and 10% (v/v) Triton X-100 and DMSO, respectively. The enzyme and the inhibitor were mixed, distributed to the wells, and preincubated for 30 min at 37 °C. A 10 min incubation period was also carried out at 37 °C for the master mixture, and the reaction was initiated by adding the master mixture to the wells. […] The effect of the activity percentage was calculated at each concentration of the inhibitor as follows [drawing 1] where SI, S100, S0 are the absolute values of the slopes from the progress curves of the reaction with inhibitor, […] respectively. IC50 and pIC50 (−log IC50 in molar concentration) values were calculated as depicted in Tables S3 and S4 (Supporting Information). Rates for the comparative dose response were calculated for each enzyme at the last time point where the uninhibited reaction maintained its linearity. […] Time and dose dependent inhibition was measured at varying concentrations of Soyasaponin 1. […]

C1GALT1 = molecular target: T4, C1GALT1 (Homo sapiens, UniProt Q9NS00); assay: biochemical; set-up: UGC coupled continuous assay, NADH fluorescence depletion, 30 min enzyme-inhibitor preincubation, 37 °C; conditions: acceptor 2x Km, donor 0.5x Km; rate at 5 min; extrapolated; read-out: Log IC50 (M) C1GALT1 (converted)
T4 construct: pGEn2 construct expressed in HEK293F (coexpressed with chaperone C1GALT1C1); tag removed with TEV protease
Protocol: as §1

ST3GAL1 [3] = molecular target: T3, ST3GAL1; assay: UGC continuous coupled NADH fluorescence assay, […] min enzyme-inhibitor preincubation, dose response; assay type: biochemical
FUT1 [4] = molecular target: T1, FUT1; assay: as above; assay type: biochemical
ST3GAL1 [5] = molecular target: T3, ST3GAL1; assay: Michaelis-Menten kinetics, UGC continuous coupled assay (CMK/NDK/PK/LDH); assay type: biochemical
FUT1 [6] = molecular target: T1, FUT1; assay: Michaelis-Menten kinetics, UGC continuous coupled assay (NDK/PK/LDH); assay type: biochemical

T4 sequence (Q9NS00 whole entry): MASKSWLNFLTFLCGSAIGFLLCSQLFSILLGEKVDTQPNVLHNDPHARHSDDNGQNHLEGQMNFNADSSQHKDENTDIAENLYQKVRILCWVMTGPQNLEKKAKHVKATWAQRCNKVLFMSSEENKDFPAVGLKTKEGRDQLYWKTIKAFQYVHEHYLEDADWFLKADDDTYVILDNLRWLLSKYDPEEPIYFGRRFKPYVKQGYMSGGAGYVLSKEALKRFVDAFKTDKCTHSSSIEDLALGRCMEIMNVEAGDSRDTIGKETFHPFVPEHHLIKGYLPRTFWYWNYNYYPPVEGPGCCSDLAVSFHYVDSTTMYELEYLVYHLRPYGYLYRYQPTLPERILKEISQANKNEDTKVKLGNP

With `C[C@@H]1O[C@H](OP(=O)(O)OP(=O)(O)OC[C@H]2O[C@@H](n3cnc4c(=O)[nH]c(N)nc43)[C@H](O)[C@@H]2O)[C@@H](O)[C@H](O)[C@@H]1O` [GDP-Fuc] the “donor at fixed saturating concentration in UGC continuous coupled assay (NDK/PK/)” value (FUT1 [1]) was “Kinetics parameters for FUT1 were calculated with a saturation concentration of the donor GDP-Fuc and variable concentrations of the acceptors”.
With `Nc1ccn([C@@H]2O[C@H](COP(=O)(O)O)[C@@H](O)[C@H]2O)c(=O)n1` [CMP] the “coupled PK/LDH NADH fluorescence progress curves over CMP serial dilution” value (CMK (cytidylate kinase)) was “the initial instant phosphorylation of CMP to CDP via CMK followed by a slower phosphorylation of CDP via PK”.
`C[C@@H]1O[C@@H](O[C@H]2[C@H](O[C@H]3[C@H](O[C@H]4CC[C@@]5(C)[C@@H](CC[C@]6(C)[C@@H]5CC=C5[C@@H]7CC(C)(C)C[C@@H](O)[C@]7(C)CC[C@]56C)[C@@]4(C)CO)O[C@H](C(=O)O)[C@@H](O)[C@@H]3O)O[C@H](CO)[C@H](O)[C@@H]2O)[C@H](O)[C@H](O)[C@H]1O` [Soyasaponin1] was tested, and the IC50 (ST3GAL1 [2]) was 5.87e-05 M, the IC50 (C1GALT1) was 0.000367 M and the IC50 (ST3GAL1 [3]) was 31 µM. The IC50 (FUT1 [4]) was 52 µM.
`CC(=O)N[C@H]1C(O)O[C@H](CO)[C@H](O)[C@@H]1O[C@@H]1O[C@H](CO)[C@H](O)[C@H](O)[C@H]1O` (stereo partly drawn) [galacto-N-biose] was tested, and the “Michaelis-Menten kinetics, UGC continuous coupled assay (CMK/NDK/PK/LDH)” value (ST3GAL1 [5]) was 195 min^–1 (kcat).
In the case of `CC(=O)N[C@H]1C(O)O[C@H](CO)[C@@H](O)[C@@H]1O[C@@H]1O[C@H](CO)[C@H](O)[C@H](O)[C@H]1O` (stereo partly drawn) [lacto-N-biose], the “Michaelis-Menten kinetics, UGC continuous coupled assay (NDK/PK/LDH)” value (FUT1 [6]) is reported as 357 min^–1 (kcat).
In the case of `CC(=O)N[C@H]1[C@@H](OCc2ccccc2)O[C@H](CO)[C@H](O)[C@@H]1O[C@@H]1O[C@H](CO)[C@H](O)[C@H](O)[C@H]1O` [T-Bn], the “Michaelis-Menten kinetics, UGC continuous coupled assay (NDK/PK/LDH)” value (FUT1 [6]) is reported as 152 min^–1 (kcat).
